Literature values in patent publication US20230138262A1, “FAST-DISINTEGRATING SOLID HERBICIDE COMPOSITION AND THE USE THEREOF” (Rotam Agrochem International Company Limited, priority 2021, published 2023).

Assays:
corn = settings: in vivo

## Cc1c(C(=O)c2cnn(C)c2O)ccc(S(C)(=O)=O)c1C1=NOCC1 [Topramezone]
corn
  Safety to corn: safe to corn
Sensitive weeds; after application
  Time to appearance of albino toxication symptoms in overground part of weeds after application: 2 to 5 days
Sensitive weeds; depending on weather and environment
  Time from application to death of weeds: 10 to 15 days
